The values that follow come from patent US7947854B2, “Bis-cationic compounds and use thereof” (The University of Sydney, priority 2003, dated 2011).

Where “and” joins values, the source holds several entries; their conditions need not be identical. Equal values may be shown once. Marks after values point to notes of the source that are not given here.

Assay [1] relates to Aspergillus flavus ATCC 204 304. The experiment in a line: In vitro antifungal activity, filamentous fungi, NCCLS M38-A. Format: cell-based. The settings on record: Aspergillus flavus, ATCC204. The source says: (§1) The assay used for filamentous fungi (Aspergillus; Scedosporium; Fusarium) was that published by the National Committee for Clinical Laboratory Standards. 2002. Reference Method for Broth Dilution Antifungal Susceptibility Testing of Filamentous Fungi: Approved Standard. NCCLS document M38-A.Villanova, Pa., USA.

In assay [2] the test system is Aspergillus fumigatus ATCC 204 305. Described as above. The class given is cell-based. As to conditions: Aspergillus fumigatus, ATCC204.
Excerpt: as §1

Assay [3] relates to Aspergillus terreus ATCC 03-232-378. Described as above. As to conditions: Aspergillus terreus, ATCC03. Format: cell-based.
Excerpt: as §1

Assay [4] relates to Scedosporium apiospermum 1-003-056. The assay is described as above. The settings on record: Scedosporium apiospermum, 1003056. The class given is cell-based.
Excerpt: as §1

The test system of assay [5] is Fusarium solani 04-132-4207. The description is as above. Format: cell-based. The settings on record: Fusarium solani, 041324207.
Excerpt: as §1

Assay [6] has as its system Scedosporium prolificans 1-003-040. Described as above. Format: cell-based. As to conditions: Lomentospora prolificans, 1003040.
Excerpt: as §1

Assay [7] relates to cytosolic phospholipase B (LPL/LPTA activities). As to the kind of experiment: Radiometric assay, cytosolic LPL/LPTA activities. Format: biochemical, Cryptococcus neoformans H99. As to conditions: pH 4. As to the method:
(§2) Fungal isolates and media. […] Isolate H99 was kindly supplied by Dr. Gary Cox (Duke University Medical Center, Durham, N.C., USA), and subcultured onto Sabouraud dextrose agar (SDA) at 30° C.
(§3) Cellular disruption to prepare membrane and cytosolic fractions. The cell pellet from the preparation of the supernatant, above, was also frozen at −70° C. After washing twice with imidazole buffer, it was disrupted in the presence of a protease inhibitor cocktail (P 8215 for fungal and yeast cells; 4-(2-aminoethyl)benzenesulfonyl fluoride hydrochloride, 100 mM, 1,10-phenanthroline, 500 mM, pepstatin A, 2.2 mM, E-64, 1.4 mM; Sigma) in a MiniBeadbeater-8 Cell Disrupter (MBB-8; Daintree Scientific, Tasmania, Australia) for three cycles of 1 min, alternating with a 1 min cooling period on ice. The homogenate was centrifuged at 14,000 g for 15 min to obtain the membrane (pellet) and the cytosolic (supernatant) fractions.
(§4) Secreted LPL and LPTA activities were measured simultaneously in a reaction mixture containing 1-[^14C]palmitoyl lyso-PC (25,000 dpm) and carrier lyso-PC (final concentration 200 μM) in assay buffer. The reaction time was […] with 1 μg of total protein and LPL activity was measured by the rate of loss of 1-[^14C]palmitoyl lyso-PC with release of radiolabelled fatty acids. LPTA activity was estimated from the rate of formation of radiolabelled PC.
(§5) All reactions were terminated by adding 0.5 mL of chloroform:methanol (2:1 v/v). The reaction products were extracted by the method as disclosed in Bligh, E. C. and W. J. Dyer. 1959 ‘A rapid method of total lipid extraction and purification.’ Can. J. Biochem. Physiol. 37:911-917, separated by TLC and quantified as previously described. In the case of PLC activity, the TLC plates were developed in petroleum ether (BP 60-80° C.): diethyl ether: acetic acid (90:15:1, v/v/v) instead of chloroform:methanol:water (65:25:4, v/v/v).
(§6) All experiments were carried out in duplicate or triplicate. The effects of pH on the various phospholipase activities were measured using 50 mM final concentration of imidazole-acetate buffer (pH range 3-5), MES buffer (pH range 6-8) and glycine buffer (pH 9-10). Controls for non-enzymic breakdown of substrates were included at all pH values. Cations, Triton X-100 and metal chelators were made up as stock solutions in water and diluted to the final concentration in the appropriate assay buffer.
(§7) Preparation of inhibitors and use in assays. The following compounds were tested (for structures, see FIG. 2): compound 1, 1,12-bis(tributylphosphonium)dodecane dibromide (Fluka AG, Buchs, Switzerland); compound 2, 1,10-bis(tributylammonium)-decane dibromide; compound 3, 1,12-bis(tributylammonium)do-decane dibromide (both synthesised in-house); compound 4, 1,10-bis(trimethylammonium)decane dibromide [“decamethonium”] (Sigma, St. Louis Mo., USA). All compounds were prepared as stock solutions of 700 μM in assay buffer containing 5 mM EDTA, which was then diluted serially with buffer to obtain solutions of 70, 7, 0.7 and 0.07 μM. In each assay, 45 μL of these solutions was used, and the final volume of 125 μL was made up of substrate, enzyme and buffer. The radiometric assay was carried out as above. Inhibition was calculated as the percent of substrates (DPPC or Lyso-PC) remaining in the case of PLB and LPL activities, or of DPPC produced, in the case of the LPTA activity. The amounts converted, or produced, in the inhibitor-free control were normalised to 100%, and the inhibition calculated against it. All assays were done in triplicate.
(§8) Under these conditions only PLB, LPL and LPTA activities (both secreted and cell-associated) were measured. Initially, compounds deemed to be potential inhibitors were assayed at 25 and 250 μM.

The test system of assay [8] is membrane-associated phospholipase B (LPL/LPTA activities). As to the kind of experiment: Radiometric assay, membrane-associated LPL/LPTA activities. Format: biochemical, Cryptococcus neoformans H99. As to conditions: pH 4. The procedure: as §2, §3, §4, §5, §6, §7, §8
The test system of assay [9] is C. neoformans strain H99 phospholipases. The experiment in a line: Inhibition of C. neoformans strain H99 phospholipases (all enzymes and activities). Format: biochemical, Cryptococcus neoformans H99. As to the method:
Radiometric assay method for phospholipases. Enzyme activities were measured as described previously in a final volume of 125 μL at 37° C. For the determination of secreted PLB activity, carrier dipalmitoyl phosphatidylcholine (DPPC, final concentration 800 μM) and 1,2-di[1-^14C] palmitoyl phosphatidylcholine (20,000 dpm) were dried under nitrogen and suspended in 125 mM imidazole acetate buffer (assay buffer, pH 4.0) by sonication using a Branson 450 sonifier. The reaction time was 22 min, using 1 μg total protein and PLB activity was determined by the rate of decrease of the radiolabelled PC substrate, with appearance of the label in free fatty acid. […] These activities were measured by the appearance of radiolabel from PC in Lyso PC, diacylglycerol and phosphatidic acid, respectively.
Secreted LPL and LPTA activities were measured simultaneously in a reaction mixture containing 1-[^14C]palmitoyl lyso-PC (25,000 dpm) and carrier lyso-PC (final concentration 200 μM) in assay buffer. The reaction time was […] with 1 μg of total protein and LPL activity was measured by the rate of loss of 1-[^14C]palmitoyl lyso-PC with release of radiolabelled fatty acids. […]
All reactions were terminated by adding 0.5 mL of chloroform:methanol (2:1 v/v). […] 37:911-917, separated by TLC and quantified as previously described. […]

Turning to `CCCC[N+](CCCC)(CCCC)CCCCCCCCCCCC[N+](CCCC)(CCCC)CCCC` [1,12-Bis-(tributylammonium)dodecane dichloride], the MIC – broadly, the least concentration at which growth counts as inhibited – in [1] was 13.4 µg/mL and 22 µM; in assay [2], 6.7 µg/mL and 11 µM; in [3] it was 3.3 µg/mL and 5.5 µM; in assay [4], 1.7 µg/mL and 2.8 µM; in assay [5] it was 3.3 µg/mL and 5.5 µM; in [6], 3.3 µg/mL and 5.5 µM.
With `CCCC[P+](CCCC)(CCCC)CCCCCCCCCCCC[P+](CCCC)(CCCC)CCCC` [Compound 1, 1,12-bis(tributylphosphonium)dodecane dibromide], the figures for the “% Inhibition LPL, Cytosolic Enzyme” value in assay [7] (2.5 μM), in assay [7] (25 μM) and in [7] (250 μM) were 0%, 0% and 12.7* %, respectively. For the same compound, the “% Inhibition LPTA, Cytosolic Enzyme” value in assay [7] (2.5 μM), in [7] (25 μM) and in assay [7] (250 μM) was 0% in each case. Moreover, the “% Inhibition LPL, Membrane-bound Enzyme” value in assay [8] (2.5 μM), in assay [8] (25 μM) and in [8] (250 μM) was 0% throughout. The “% Inhibition LPTA, Membrane-bound Enzyme” value in [8] (2.5 μM), in [8] (25 μM) and in assay [8] (250 μM) was 0% throughout.
Consider `CCCC[N+](CCCC)(CCCC)CCCCCCCCCCCC[N+](CCCC)(CCCC)CCCC` [Compound 3, 1,12-bis(tributylammonium)do-decane dibromide], for which the “enzyme (phospholipase) inhibition, in words” value in assay [9] is on record as “inhibits”.
